Laboratory results taken from patent US5464859A, “Benzospiroalkene derivatives” (Adir et Compagnie, priority 1993, dated 1995).
Structures can show the parent of a compound that is named as a salt.

Tests used:
femoral arteries = experiment: In vitro contraction of dog femoral arteries (agonist concentration/effect curve); conditions: Canis lupus familiaris, ARTERY; for EC50: femoral artery rings, dog, 37° C.; for Emax: maximum effect relative to maximum effect caused by 100 mM KCl, read-out: Max (% KCl)
Description: (§1) In vitro study on the femoral arteries and saphenous veins of dogs
(§2) The technique used is based on that described by Fowler et at. (J. Pharmacol. Exp. Ther., 229, 712-718, 1984). Male or female mongrel dogs weighing approximately 15-25 kg were used as organ sources. The animals are anesthetized with pentrobarbital (30 mg/kg, intravenously). Incisions are made in the legs and the vessels are withdrawn. They are placed in Krebs-Ringer liquid (NaCl 118 mM, NaHCO3 25 mM, Glucose 10 mM, KCl 4.7 mM, CaCl2 1.25 mM, MgSO4 1.19 mM, KH2 PO4 1.14 mM) at room temperature and while bubbling with carbogen (95% O2, 5% CO2). These vessels are then carefully freed from their fat, then cut into rings with a width of 2 mm and mounted under a base tension of 4 g (femoral arteries) or 1 g (saphenous veins) in vessels thermostatically controlled at 37° C. containing Krebs-Ringer liquid through which carbogen is constantly bubbling. A lower hook constitutes the set point whereas the upper hook is connected to an isometric force sensor. The tension variations are digitized, stored on disk and processed by a computer system. After mounting, the organs, are left at rest for 90 minutes, rinsings being carried out every 30 min. After readjusting the base tension, a contraction is caused by a single dose of KCl (100 mM). After stabilisation, washing and returning to the base line, a contraction is provoked by a single dose of phenylephrine (submaximal concentration) in order to regularize the following contractions. After washing and returning to the base line, a concentration/effect curve is produced by addition of cumulative doses of agonist (the spacing between the doses is a half-log). This experiment makes it possible to calculate the 50% effective concentration (EC5.sbsb.0) in the following way: the tension values are first converted to percentages with respect to the maximum effect caused by 100 mM of KCl. This EC5.sbsb.0 is determined by non-linear regression by the Simplex method (M. S. Caceci, Byte, 340-362, 1984), calculated according to the model of the law of mass action of L. Michaelis and M. L. Menten (Biochem. Zeitschrifft, 49, 333-369, 1913). E=(Emax*C^n)(EC^n +C^n) where E=effect, Emax=maximum effect, C=concentration, EC=EC5.sbsb.0 and n=Hill number.

saphenous veins = experiment: In vitro contraction of dog saphenous veins (agonist concentration/effect curve); conditions: Canis lupus familiaris, VEIN; for Emax: maximum effect relative to maximum effect caused by 100 mM KCl, read-out: Max (% KCl); for EC50: saphenous vein rings, dog, 37° C.
Description: as §1, §2

1 or 2 -adrenergic = experiment: In vivo study on amyelous rats (arterial pressure increase, with or without prazosin or yohimbine); set-up: species or system Male Sprague-Dawley rats; conditions: for Ratio C20 treated/C20 control: pretreated with yohimbine (1 mg/kg); for ED (20 mmHg): Rattus norvegicus, iv, Control (no antagonist), increasing cumulative doses every 20 seconds, tertatolol pretreatment, read-out: C20 (concentration which increases the pressure by 20 mmHg)
Description: In vivo study on AMYELOUS RATS
Male Sprague-Dawley rats (300-400 g) are anesthatized with ether. A cannula is inserted in the trachea, the spinal cord is destroyed using a steel rod and the animal is immediately placed under artificial respiration. The vagus nerves are sectioned. The carotid arteries are ligatured and a catheter is placed in one and is used to record the arterial pressure. Three other catheters are placed in the jugular veins and the vein of the penis and are used for injections. The temperature of the animals is maintained at 36° C. The animal is pretreated with an injection of tertatolol ([…]). The animal is also pretreated 10 minutes afterwards with prazosin ([…]) or yohimbine (1 mg/kg) when it is wished to determine the 1 or 2 -adrenergic properties of the product. Ten minutes later, increasing cumulative doses of product are injected every 20 seconds. The medal pressure variations are detected using a P23XL Statham pressure cell and are recorded. The pressure values are expressed in mmHg. This experiment makes it possible to calculate the concentration which increases the pressure by 20 mmHg (C2.sbsb.0) by non-linear regression according to the model of the Michaelis and Menten mass action law as described above. The maximum effect obtained is then converted to a percentage with respect to the maximum effect caused by phenylephrine. The 1 or 2 -adrenergic components of the product are estimated using the ratio of the C2.sbsb.0 values obtained in the presence of prazosin or of yohimbine to the values obtained in the absence of these antagonists. In amyelous rats, the products of the invention induce hypertensions which are inhibited more by prazosin than by yohimbine.

Compound | EC50 (femoral arteries) [µM] | Emax (femoral arteries) [%] | Emax (saphenous veins) [%] | EC50 (saphenous veins) [µM] | Ratio C20 treated/C20 control (1 or 2 -adrenergic) | ED (20 mmHg) (1 or 2 -adrenergic) [µg/kg]
COc1ccc(OC)c2c1CCC1(CNC=N1)C2 (single isomer, unassigned) [Example 7, Spiro[(1,3-diazacyclopent-1-ene)-5,2'-(5',8'-dimethoxy-1',2',3',4'-tetrahydro-naphthalene)]fumarate, isomer α] | 0.03 | 95 | 109 | 0.12 | – | –
COc1ccc(OC)c2c1CCC1(CNC=N1)C2 (stereo not drawn) [Example 1, Spiro[(1,3-diazacyclopent-1-ene)-5,2'-(5',8'-dimethoxy-1',2',3',4'-tetrahydronaphthalene)]fumarate] | 0.16 | 72 | 100 | 0.2 | 11 | –
CCOc1ccc(OC)c2c1CCC1(CNC=N1)C2 (stereo not drawn) [Example 2, Spiro[(1,3-diazacyclopent-1-ene)-5,2'-(5'-ethoxy-8'-methoxy-1',2',3',4'-tetrahydronaphthalene)]fumarate] | – | – | – | – | 5 | 0.06
CCOc1ccc(OCC)c2c1CCC1(CNC=N1)C2 (stereo not drawn) [Example 3, Spiro[(1,3-diazacyclopent-1-ene)-5,2'-(5',8'-diethoxy-1',2',3',4'-tetrahydronaphthalene) fumarate] | – | – | – | – | 8 | 0.6
COc1cccc2c1CCC1(CNC=N1)C2 (stereo not drawn) [Example 5, Spiro[(1,3-diazacyclopent-1-ene)-5,2'-(5'-methoxy-1',2',3',4'-tetrahydronaphthalene)]] | 1.5 | 93 | 100 | 6.4 | – | –
COc1ccc(SC)c2c1CC1(CC2)CNC=N1 (stereo not drawn) [Example 6, Spiro[(1,3-diazacyclopent-1-ene)-5,2'-(5'-methylthio-8'-methoxy-1',2',3',4'-tetrahydronaphthalene)]fumarate] | 0.08 | 85 | 98 | 0.8 | – | –
